From US8642591B2, “Composition containing amidine derivatives or carboxamide derivatives and steroids, as a medicament” (priority 2006, dated 2014)
Where a name gives a salt, the structure may show the parent alone. Read-outs that look alike come from different tables or passages of the source.

Tested on: Human Skeletal Cells (SKM)
Assay: Protective effect on cell death induced by maitotoxin on human skeletal cells (SKM), WST-1 readout
Assay type: cell-based
Conditions: maitotoxin 24 h
Description: The principle of the test is the following: maitotoxin is a toxin which causes the opening of the calcium channels of cells. The resulting intra-cellular flow of calcium is at the origin of the death of the cell. During this process of cell death, a cysteine-dependent protease, calpain, is activated, and an abundance of free radicals is produced. The test consists of incubating the cells in the presence of the composition to be tested, in order to delay or inactivate cell death and thus determine the protective effect.
The myoblasts are seeded at 2500 cells per well in 96-well plates in a DMEM 10% FCS (foetal calf serum) culture medium supplemented with amphotericin B, human recombinant epidermal growth factor and dexamethasone. Three days after seeding, the cells have adhered to the base of the well, the differentiation of the cells to myotubes is induced by adding 100 μl of DMEM F12 medium containing 2% horse serum. After three more days, 100 μl of compound to be tested are placed at the bottom of the well. After incubation for one hour at 37° C. under an atmosphere of 5% CO2, the maitotoxin (MTX) (Wako, ref: 131-10731) is added to evaluate the protective effect (concentration-effect) of the compound to be tested on cell death.
After an incubation time of 24 h, the culture medium is replaced by a DMEM 10% FCS medium supplemented by WST-1. […] The cells are incubated for 1 hour in the presence of WST-1. Then the number of live cells is determined using a Perkin-Elmer Wallac Envision 2101 device by reading the absorbance at 450 nm. The concentration-effect of the products on the cell survival rate is then calculated.
The CE50 is deduced by linear regression: concentration with respect to the percentage of protection. The mathematical method used is the isobologram approach described in: “Drug synergism and dose-effect data analysis, Ronald J. Tallarida, Chapman & Hall/CRC, 2000”.

Question: For `CC(=O)OC1OCC[C@@H]1NC(=O)[C@H](CC(C)C)NC(=O)c1ccc2c(c1)Nc1ccccc1S2` (stereo partly drawn) [(3S)-3-{[N-(10H-phenothiazin-2-ylcarbonyl)-L-leucyl]amino}tetrahydrofuran-2-yl acetate], which EC50 (Homo sapiens, 24 h, read-out: EC50 μM After incubation for 24 h with the toxin, single substance (proportion 1), cell mortality rate induced by the toxin 97%) is on record?
Answer: Its EC50 is 29.1 µM.

Question: How did the EC50 (Homo sapiens, 24 h, read-out: EC50 μM After incubation for 24 h with the toxin, single substance (proportion 1), cell mortality rate induced by the toxin 84%) turn out when `CC(C)C[C@H](NC(=N)c1ccc2c(c1)Nc1ccccc1S2)C(=O)N[C@H]1CCOC1O` (stereo partly drawn) [Example 5, N^1-[(3S)-2-hydroxytetrahydrofuran-3-yl]-N^2-[imino(10H-phenothiazin-2-yl)methyl]-L-leucinamide hydroiodide] was run?
Answer: The EC50 was 6.26 µM.

Question: Which EC50 (Homo sapiens, 24 h, read-out: EC50 μM After incubation for 24 h with the toxin, single substance (proportion 1), cell mortality rate induced by the toxin 96%) does the source give for `CC(C)C[C@H](NC(=N)c1ccc2c(c1)Nc1ccccc1S2)C(=O)N[C@H]1CCOC1O` (stereo partly drawn) [Example 7, N^1-[(3S)-2-hydroxytetrahydrofuran-3-yl]-N^2-[imino(10H-phenothiazin-2-yl)methyl]-L-leucinamide hydrochloride] here?
Answer: The EC50 was 5.92 µM.

Question: For `C[C@H]1C[C@@H]2[C@H]([C@@H](O)C[C@@]3(C)[C@H]2CC[C@]3(O)C(=O)CO)[C@@]2(C)C=CC(=O)C=C12` [α-methylprednisolone], which EC50 (single substance (proportion 1), cell mortality rate induced by the toxin 84%, read-out: EC50 μM After incubation for 24 h with the toxin) is on record?
Answer: Its EC50 is 87.6 µM.

Question: And the EC50 (single substance (proportion 1), cell mortality rate induced by the toxin 96%, read-out: EC50 μM After incubation for 24 h with the toxin)?
Answer: Its EC50 is 169 µM.

Question: What about the EC50 (single substance (proportion 1), cell mortality rate induced by the toxin 97%, read-out: EC50 μM After incubation for 24 h with the toxin) of the same molecule?
Answer: The EC50 was 107 µM.
